Patent publication US10501493B2, “Broad spectrum antibiotics” (priority 2011, dated 2019)
≈ marks a conversion by molar mass, not a printed value.

What was measured:
[1] = target: T1, S. aureus SPase (Staphylococcus aureus, UniProt P0A070); experiment: Steady state binding constant (Kd) determination by fluorescence increase
T1 construct: Full length His-tagged S. aureus SPase protein was expressed similarly; His-tag; made in house; host or cells: E. coli BL21(DE3)
Protocol: (§1) Full length His-tagged E. coli SPase proteins were expressed in E. coli BL21(DE3) containing the plasmid pET23-lepB, P. A. Smith et al. Chem Biol 2010, 1223-1231. Briefly, saturated overnight cultures grown in 20 ml of Luria-Bertani medium supplemented with ampicillin were subcultures into 1.5 L of Luria-Bertani, and shaken at 37° C. until an optical density at 600 nm of 0.4-0.5 was achieved. Protein expression was induced with Isopropyl β-D-1-thiogalactopyranoside (ITPG) at a final concentration of […], and purified using nickel affinity chromatography. Full length His-tagged S. aureus SPase protein was expressed similarly from E. coli BL21(DE3) containing the plasmid pCDF1-SaSpsB or pCDF1-SaSpsB(P29S) and purified similarly to the E. coli protein with the following exceptions. SPase protein was solubilized using 300 mM NaCl, 20 mM Tris pH 8.06, 5 mM Imidazole, 10% glycerol, 1% Triton X-100, prior to purification in Ni-NTA Superflow resin and resin bound protein was washed in a similar buffer containing 1% Elugent in place of Triton X-100 prior to protein eluted in wash buffer supplemented with 300 mM imidazole. Protein purify was judged to exceed 95% by visual inspection of SDS-PAGE followed by Comassie staining. All protein concentrations were determined by BCA assay.
(§2) Steady state binding constants (Kds) of compounds were determined by measuring an increase in fluorescence (λex=280 nm, λem=405 nm) that occurs upon binding to E. coli or S. aureus SPase protein. Two-fold serial dilutions of compounds were prepared in 100% DMSO, and compounds were diluted into binding buffer consisting of 100 mM NaCl, 20 mM Tris-HCl pH 7.4, 1 mM EDTA, 1% n-octyl-3-glucopyranoside (Anatrace), and 10% glycerol, with the final DMSO concentration equal to 1%. 70 μl of the resulting solutions containing various concentrations of compound in binding buffer were aliquoted into triplicate wells of a black polystyrene 384-well plate. 5 μl of blank solution or E. coli or S. aureus protein at concentrations of 750 or 3750 nM respectively, were added to each set of wells for a given inhibitor concentration. Plates were incubated for 14 hours and fluorescence read on an EnVision Multilable plate reader (Perkin Elmer™). Differences in fluorescence values between wells with and without protein were determined and background corrected for protein auto fluorescence. The corrected fluorescence difference data was fit to the quadratic equilibrium binding curve using the non-linear regression analysis software Solver (Frontline Systems®) run in Excel 2010, (Microsoft®), using experimentally determined quantum efficiency constants to convert fluorescence into nanomoles of protein/compound complex.

[2] = target: T2, E. coli SPase (Escherichia coli, UniProt P00803); experiment: as above
T2 construct: Full length His-tagged E. coli SPase proteins were expressed in E. coli BL21(DE3); His-tag; made in house; host or cells: E. coli BL21(DE3)
Protocol: as §1, §2

[3] = test system: S. pneumoniae R800; experiment: In vitro antimicrobial activity, MIC by broth micro-dilution; type: cell-based; details: Streptococcus pneumoniae, read-out: MIC
Method in brief: (§3)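 CLSI broth micro-dilution MIC against two-fold serial compound dilutions. Inoculum came from colonies grown 24 h at 35° C. or 28° C., suspended in cation-adjusted Mueller Hinton broth at 1*10^7 CFU/ml, of which 5 μl was added per 100 μl well. LepB(P84L) is a proline-mutant SPase strain with heightened arylomycin susceptibility.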

[4] = test system: S. aureus NCTC-8325 SpsB(P295); experiment: as above; type: cell-based; details: Staphylococcus aureus, NCTC8325
[5] = test system: S. epidermidis RP62A; experiment: as above; type: cell-based; details: Staphylococcus epidermidis; S. epidermidis RP62A; read-out: MIC
[6] = test system: C. glutamicum DSM 44475; experiment: as above; type: cell-based; details: Corynebacterium glutamicum, DSM44475, read-out: MIC
[7] = test system: S. agalactiae COH-1; experiment: as above; type: cell-based; details: Streptococcus agalactiae, COH1; S. agalactiae COH-1; read-out: MIC
[8] = test system: S. agalactiae ATCC 13813; experiment: as above; type: cell-based; details: Streptococcus agalactiae, ATCC13813, read-out: MIC
[9] = test system: P. aeruginosa PA01; experiment: as above; type: cell-based; details: Pseudomonas aeruginosa, read-out: MIC
Method in brief: as §3

[10] = test system: E. coli MIG1655; experiment: as above; type: cell-based; details: Escherichia coli, MIG1655
Method in brief: as §3

[11] = test system: P. aeruginosa PA01 LepB(P84L); experiment: as above; type: cell-based; details: Pseudomonas aeruginosa
Method in brief: as §3

[12] = test system: S. pyogenes ATCC 19615; experiment: as above; type: cell-based; details: Streptococcus pyogenes, ATCC19615, read-out: MIC
[13] = test system: S. epidermidis RP62A SpsIB(S29P); experiment: as above; type: cell-based; details: Staphylococcus epidermidis
[14] = test system: E. coli MIG1655 LepB(P84L); experiment: as above; type: cell-based; details: Escherichia coli
Method in brief: as §3

[15] = test system: S. epidermidis ATCC 12228; experiment: as above; type: cell-based; details: Staphylococcus epidermidis, ATCC12228, read-out: MIC
[16] = test system: R. equi DSM 6939; experiment: as above; type: cell-based; details: Rhodococcus (subgen. Prescottella) equi, DSM6939, read-out: MIC
Method in brief: as §3

[17] = test system: S. pneumoniae D39; experiment: as above; type: cell-based; details: Streptococcus pneumoniae; S. pneumoniae D39; read-out: MIC
[18] = test system: S. pyogenes M15448; experiment: as above; type: cell-based; details: Streptococcus pyogenes; S. pyogenes M15448; read-out: MIC
Method in brief: as §3

[19] = test system: S. aureus ATCC 29213; experiment: as above; type: cell-based; details: Staphylococcus aureus, ATCC29213, read-out: MIC
[20] = test system: S. epidermidis RP62A SpsIB(S31P); experiment: as above; type: cell-based; details: Staphylococcus epidermidis

| Compound | Kd [1] [nM] | Kd [2] [nM] | MIC [3] [µg/mL] | MIC [4] [µg/mL] | MIC [5] [µg/mL] | MIC [6] [µg/mL] | MIC [7] [µg/mL] | MIC [8] [µg/mL] | MIC [9] [µg/mL] | MIC [10] [µg/mL] | MIC [11] [µg/mL] | MIC [12] [µg/mL] | MIC [13] [µg/mL] | MIC [14] [µg/mL] | MIC [15] [µg/mL] | MIC [16] [µg/mL] | MIC [17] [µg/mL] | MIC [18] [µg/mL] | MIC [19] [µg/mL] | MIC [20] [µg/mL] |
| --- | --- | --- | --- | --- | --- | --- | --- | --- | --- | --- | --- | --- | --- | --- | --- | --- | --- | --- | --- | --- |
| CCCCCCCCCCCCCCCC(=O)N(C)[C@H](CO)C(=O)N[C@H](C)C(=O)NCC(=O)N(C)[C@@H]1C(=O)N[C@@H](C)C(=O)N[C@H](C(=O)O)Cc2ccc(O)c(c2)-c2cc1ccc2O [Compound 1, arylomycin C16] | 750 | 75 | 8 (≈ 9.08 µM) | 4 (≈ 4.54 µM) | 0.3 (≈ 0.34 µM) | 8 (≈ 9.08 µM) | > 64 | 16 (≈ 18.2 µM) | > 64 | > 64 | 8 (≈ 9.08 µM) | 16 (≈ 18.2 µM) | 8 (≈ 9.08 µM) | 1 (≈ 1.13 µM) | 2 (≈ 2.27 µM) | 16 (≈ 18.2 µM) | 4 (≈ 4.54 µM) | 16 (≈ 18.2 µM) | > 64 | > 64 |
| CCCCCCCCCCCCCCCC(=O)N(C)[C@H](CO)C(=O)N[C@H](C)C(=O)NCC(=O)N(C)[C@@H]1C(=O)N[C@@H](C)C(=O)N[C@H](C(=O)NC(C)C=O)Cc2ccc(O)c(c2)-c2cc1ccc2O (some centres unmarked) [Compound 33] |  |  | 32 (≈ 34.2 µM) | 64 (≈ 68.4 µM) | 64 (≈ 68.4 µM) | 64 (≈ 68.4 µM) | 64 (≈ 68.4 µM) | > 64 | > 64 | > 64 | > 64 | 16 (≈ 17.1 µM) | 64 (≈ 68.4 µM) | 64 (≈ 68.4 µM) | > 64 | 64 (≈ 68.4 µM) | 32 (≈ 34.2 µM) | 16 (≈ 17.1 µM) | > 64 | 64 (≈ 68.4 µM) |
